In paper PMC7591906, “pHLIP ICG for delineation of tumors and blood flow during fluorescence-guided surgery” (Scientific Reports, 2020):
pIC50, pKi: −log10 of the molar value.

Legend:
[1] = cited from earlier work
Method: We carried out a comparative study of blood flow imaging in mice using ICG-Cys (ICG-maleimide conjugated with a Cys residue) and pHLIP ICG (2.5 nmol of each). […] The most widely used is the near-infrared emitting ICG, first approved for angiography and subsequently used in ophthalmology and elsewhere for imaging blood vessels[36]–[41]. […] If administered intraperitoneally, ICG is found in the nearest lymph nodes within 15 min, and in the regional lymph nodes within 1–2 h[44],[45]. The IV dose of ICG varies from 0.5 to 2.0 ...

progesterone receptor B = target: T1, progesterone receptor B (Homo sapiens, UniProt P06401); assay: Progesterone receptor B radioligand binding assay
T1 construct: purchased Eurofins Panlabs, Inc
T1 sequence (P06401 1-933): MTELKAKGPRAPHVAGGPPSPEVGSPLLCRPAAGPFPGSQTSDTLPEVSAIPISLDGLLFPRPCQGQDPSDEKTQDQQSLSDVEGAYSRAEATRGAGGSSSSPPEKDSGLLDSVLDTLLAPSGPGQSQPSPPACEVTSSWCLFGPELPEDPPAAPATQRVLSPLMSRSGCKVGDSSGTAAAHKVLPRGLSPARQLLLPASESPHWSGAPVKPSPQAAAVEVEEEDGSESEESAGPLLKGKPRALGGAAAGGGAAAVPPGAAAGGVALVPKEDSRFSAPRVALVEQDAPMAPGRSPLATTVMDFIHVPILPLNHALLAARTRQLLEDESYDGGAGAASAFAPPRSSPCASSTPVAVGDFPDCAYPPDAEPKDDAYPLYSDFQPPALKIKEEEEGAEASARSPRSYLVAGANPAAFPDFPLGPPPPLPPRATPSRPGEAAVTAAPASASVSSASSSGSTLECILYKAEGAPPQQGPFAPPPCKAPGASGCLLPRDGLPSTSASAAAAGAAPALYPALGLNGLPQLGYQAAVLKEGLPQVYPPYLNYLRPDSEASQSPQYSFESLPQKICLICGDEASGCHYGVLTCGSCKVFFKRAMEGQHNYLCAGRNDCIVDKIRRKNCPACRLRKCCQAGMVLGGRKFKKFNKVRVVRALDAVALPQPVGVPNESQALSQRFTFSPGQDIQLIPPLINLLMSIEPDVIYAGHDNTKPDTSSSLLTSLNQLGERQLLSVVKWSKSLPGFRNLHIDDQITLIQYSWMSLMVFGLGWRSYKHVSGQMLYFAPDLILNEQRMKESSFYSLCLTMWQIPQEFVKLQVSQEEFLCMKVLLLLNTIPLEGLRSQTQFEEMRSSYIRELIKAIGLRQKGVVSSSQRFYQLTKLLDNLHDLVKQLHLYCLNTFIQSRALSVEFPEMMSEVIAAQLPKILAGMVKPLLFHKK
Method: The pHLIP ICG enzyme binding assays were performed by Eurofins Panlabs, Inc. according to standard assay protocols. The following enzymes were used in the binding assay with 2 µM of pHLIP ICG : acetyl cholinesterase; peptidase (angiotensin converting enzyme); ATPase (Na^+/K^+, pig heart); CTSG peptidase (cathepsin G); cyclooxygenases COX-1 and COX-2; monoamine oxidases MAO-A and MAO-B; phosphodiesterases PDE3 and PDE4D2; protein tyrosine kinase (insulin receptor); protein tyrosine kinase (LCK); protein serine/threonine kinase (PKC, non-selective); adenosine A1 and A2A; adenosine transporter; adrenergic α1A, α1B, α1D, α2A, α2B, β1 and β2; norepinephrine transporter (NET); androgen (testosterone); angiotensin AT1; bradykinin B2; calcium channels L-type (benzothiazepine, dihydropyridine, phenylalkylamine); calcium channel N-type; cannabinoid CB1 and CB2; chemokine CCR1; cholecystokinin CCK1 (CCKA) and CCK2 (CCKB); dopamine D1, D2L and D2S; dopamine transporter (DAT); endothelin ETA; estrogen ERα; GABA transporter; GABAAs (flunitrazepam, central; Ro-15-1788, hippocampus and chloride channel, TBOB); glucocorticoid; glutamate (AMPA, kainate, agonism NMDA, glycine NMDA, phencyclidine NMDA, polyamine NMDA, and mGlu5 metabotropic); glycine (strychnine-sensitive); histamine H1 and H2; chemokine CXCR2 (IL-8RB); cysteinyl leukotriene (CysLT1); melanocortin MC1 and MC4; muscarinic M1, M2, M3, and M4; tachykinin NK1; neuropeptide Y Y1; nicotinic acetylcholine α1 (bungarotoxin) and α3β4; opiate δ1 (OP1, DOP), κ (OP2, KOP), and μ (OP3, MOP); platelet activating factor (PAF); potassium channels (KATP and hERG); PPARγ; serotonin (5-hydroxytryptamine) 5-HT1A, 5-HT1B, 5-HT2A, 5-HT2B, 5-HT2C, and 5-HT3; serotonin transporter (SERT); sodium channel (site 2); vasopressin V1A; progesterone (PR-B). The most significant inhibitory effect of pHLIP ICG was observed on progesterone B and was followed by an additional study to identify IC50 values, which were determined by a non-linear least square regression analysis using MathIQTM (ID Business Solutions Ltd., UK). The Ki values were calculated by the equation from Cheng and Prusoff [Cheng, Y., Prusoff, W.H., Biochem. Pharmacol. 22:3099-3108, 1973] using the observed IC50 of pHLIP ICG , the concentration of radioligand employed in the assay, and the historical values for the KD of the ligand (Eurofins Panlabs data). The Hill coefficient (nH), defining the slope of the competitive binding curve, was calculated using MathIQTM. The IC50, Ki, and nH values were established for pHLIP ICG and compared to the known progesterone agonist, R-2050 (Figure S3).
Figure SI,3. […]

[2] = Peripheral blood micronucleus test in rats (GLP); assay type: in vivo, Sprague Dawley rats; conditions: male rats, 10 mg/kg oral gavage twice, 24 hours apart
Method: The objective of this GLP study performed at CRL was to determine the potential genotoxicity of pHLIP ICG when given by i.v. bolus injection to rats using the peripheral blood micronucleus test.
In order to determine the maximum tolerated dose, a dose-range finding test was performed prior to the main test, where male and female rats (3 animals/sex) were administered a single dose of pHLIP ICG by i.v. injection. The doses evaluated were 14 mg/kg and 25 mg/kg using 5% EtOH in PBS, pH 7.4 as the vehicle.
Blood was collected for micronuclei evaluation at 45 hours post-dose (Groups 3 to 7), and 69 hours post-dose (Groups 3 and 7). The proportion of immature erythrocytes among total erythrocytes in the peripheral blood (%RETs) and the percentage of micronucleated reticulocytes (%MN-RETs) in the NC group were within the laboratory historical negative control range. […] The results from both NC and PC groups confirmed the validity of the assay.

SMILES: CC1(C)C(/C=C/C=C/C=C/C=C2\N(CCCCS(=O)(=O)O)c3ccc4ccccc4c3C2(C)C)=[N+](CCCCS(=O)(=O)[O-])c2ccc3ccccc3c21 [ICG, indocyanine green]
- Time to be found in the nearest lymph nodes ([1]; administered intraperitoneally): ≤ 15 min
- Time to be found in the regional lymph nodes ([1]; administered intraperitoneally): 1 to 2 h
- Clearance from the blood ([1]; as contrast agent for imaging blood flow, no reference given): within a few minutes
- Half-life in blood [1]: 2.5 min
- Time of appearance in the bile after injection ([1]; cleared through the liver): about 8 min
- Acute toxicity ([1]; high dose of 5 mg/kg): no acute toxicity has been observed

SMILES: CCC(=O)[C@@]1(C)CC[C@H]2[C@@H]3CCC4=CC(=O)CCC4=C3CC[C@@]21C [R-2050, reference compound]
- pKi (progesterone receptor B; Cheng-Prusoff from IC50, reference agonist, read-out: Ki progesterone receptor B): 9.59
- pIC50 (progesterone receptor B; radioligand binding, 20 hrs, reference agonist, read-out: IC50 progesterone receptor B): 9.48

SMILES: O=P1(N(CCCl)CCCl)NCCCO1 (stereo not drawn) [PC, cyclophosphamide monohydrate, reference compound]
- Micronuclei, positive control [2]: statistically significant increase in micronuclei
